Like-named read-outs stand apart in the source and are kept apart here.
How the values were obtained:
Type in all cases: cell-based
[1] = target: protein kinases (human kinome) (Homo sapiens, UniProt P30291); conditions: for logFC of WEE1: WEE1 P30291-1
[2] = target: T1, protein kinases (human kinome) (Homo sapiens, UniProt O14976); conditions: for logFC of GAK (O14976): down; for logFC GAK: GAK (O14976), direction down
T1 sequence (O14976 1-1311): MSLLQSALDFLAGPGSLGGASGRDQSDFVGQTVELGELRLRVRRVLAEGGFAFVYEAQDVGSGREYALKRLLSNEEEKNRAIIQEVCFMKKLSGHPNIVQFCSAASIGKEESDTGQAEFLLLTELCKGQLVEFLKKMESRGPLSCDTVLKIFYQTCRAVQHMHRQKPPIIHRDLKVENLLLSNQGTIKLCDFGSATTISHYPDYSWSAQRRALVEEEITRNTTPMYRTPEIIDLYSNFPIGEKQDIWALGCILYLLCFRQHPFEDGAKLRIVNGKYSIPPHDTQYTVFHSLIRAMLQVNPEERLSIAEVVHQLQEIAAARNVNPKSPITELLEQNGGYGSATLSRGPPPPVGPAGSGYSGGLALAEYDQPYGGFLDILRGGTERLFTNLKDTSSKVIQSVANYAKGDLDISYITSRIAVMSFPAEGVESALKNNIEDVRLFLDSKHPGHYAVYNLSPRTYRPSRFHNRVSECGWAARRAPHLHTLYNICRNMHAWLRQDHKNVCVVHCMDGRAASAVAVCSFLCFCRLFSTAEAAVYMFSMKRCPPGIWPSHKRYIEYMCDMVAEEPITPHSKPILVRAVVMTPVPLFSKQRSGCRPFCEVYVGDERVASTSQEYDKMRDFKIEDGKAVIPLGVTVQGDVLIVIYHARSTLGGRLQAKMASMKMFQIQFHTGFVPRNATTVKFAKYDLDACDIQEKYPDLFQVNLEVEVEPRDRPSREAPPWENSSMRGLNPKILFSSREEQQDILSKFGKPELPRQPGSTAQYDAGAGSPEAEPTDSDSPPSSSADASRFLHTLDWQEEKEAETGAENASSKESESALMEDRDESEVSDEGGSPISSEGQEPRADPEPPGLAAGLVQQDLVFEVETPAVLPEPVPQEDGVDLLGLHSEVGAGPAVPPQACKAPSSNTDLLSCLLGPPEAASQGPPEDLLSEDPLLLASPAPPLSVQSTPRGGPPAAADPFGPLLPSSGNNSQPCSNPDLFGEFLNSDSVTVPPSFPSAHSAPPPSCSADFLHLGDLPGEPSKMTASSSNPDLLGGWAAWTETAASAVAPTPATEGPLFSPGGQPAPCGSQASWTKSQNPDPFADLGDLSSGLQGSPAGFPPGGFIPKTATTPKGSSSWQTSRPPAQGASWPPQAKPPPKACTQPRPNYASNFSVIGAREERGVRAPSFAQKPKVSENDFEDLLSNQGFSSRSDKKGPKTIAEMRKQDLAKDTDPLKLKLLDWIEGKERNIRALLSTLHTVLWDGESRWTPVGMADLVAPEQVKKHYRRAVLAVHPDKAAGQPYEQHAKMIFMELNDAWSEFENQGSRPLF

[3] = target: T2, protein kinases (human kinome) (Homo sapiens, UniProt O14965)
T2 sequence (O14965 1-403): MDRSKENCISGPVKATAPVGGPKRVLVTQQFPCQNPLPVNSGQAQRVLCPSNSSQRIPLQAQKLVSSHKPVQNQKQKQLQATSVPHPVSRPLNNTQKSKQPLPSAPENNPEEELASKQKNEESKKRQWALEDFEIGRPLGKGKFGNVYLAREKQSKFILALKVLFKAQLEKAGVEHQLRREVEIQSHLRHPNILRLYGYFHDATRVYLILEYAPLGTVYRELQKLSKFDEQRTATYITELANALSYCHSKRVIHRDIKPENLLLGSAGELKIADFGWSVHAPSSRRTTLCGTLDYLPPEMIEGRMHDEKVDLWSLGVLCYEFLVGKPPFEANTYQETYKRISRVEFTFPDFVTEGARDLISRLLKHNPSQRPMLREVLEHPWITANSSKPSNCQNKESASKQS

[4] = target: protein kinases (human kinome) (Homo sapiens, UniProt Q2M2I8); conditions: experiment wp045
Chain of protein kinases (human kinome) (Homo sapiens, UniProt Q2M2I8) (Q2M2I8 whole entry): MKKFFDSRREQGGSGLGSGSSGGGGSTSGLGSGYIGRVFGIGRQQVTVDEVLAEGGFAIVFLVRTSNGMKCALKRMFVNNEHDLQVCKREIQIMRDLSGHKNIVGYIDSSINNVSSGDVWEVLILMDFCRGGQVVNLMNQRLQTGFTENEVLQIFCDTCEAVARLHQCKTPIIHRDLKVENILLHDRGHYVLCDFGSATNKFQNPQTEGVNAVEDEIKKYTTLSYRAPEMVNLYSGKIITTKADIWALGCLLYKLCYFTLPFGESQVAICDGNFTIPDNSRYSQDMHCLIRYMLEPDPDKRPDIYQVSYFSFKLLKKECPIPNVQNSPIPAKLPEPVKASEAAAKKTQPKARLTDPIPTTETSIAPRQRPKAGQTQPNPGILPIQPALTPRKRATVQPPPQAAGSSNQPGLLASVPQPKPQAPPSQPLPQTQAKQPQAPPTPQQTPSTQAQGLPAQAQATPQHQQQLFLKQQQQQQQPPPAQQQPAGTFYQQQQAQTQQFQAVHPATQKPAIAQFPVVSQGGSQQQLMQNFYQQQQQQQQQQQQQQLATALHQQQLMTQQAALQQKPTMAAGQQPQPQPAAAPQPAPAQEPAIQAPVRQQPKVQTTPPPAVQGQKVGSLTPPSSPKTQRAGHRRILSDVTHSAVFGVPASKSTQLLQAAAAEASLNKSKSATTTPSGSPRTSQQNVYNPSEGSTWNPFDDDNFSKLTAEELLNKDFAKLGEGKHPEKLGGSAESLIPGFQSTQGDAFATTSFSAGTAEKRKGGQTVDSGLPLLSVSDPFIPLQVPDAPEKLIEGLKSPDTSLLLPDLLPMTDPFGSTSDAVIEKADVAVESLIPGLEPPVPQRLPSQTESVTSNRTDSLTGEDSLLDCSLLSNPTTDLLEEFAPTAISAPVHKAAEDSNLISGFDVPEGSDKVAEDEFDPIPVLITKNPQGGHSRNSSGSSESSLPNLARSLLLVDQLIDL

[5] = experiment wp076, degrader vs DMSO

Chain of protein kinases (human kinome) (Homo sapiens, UniProt P30291) (P30291 whole entry): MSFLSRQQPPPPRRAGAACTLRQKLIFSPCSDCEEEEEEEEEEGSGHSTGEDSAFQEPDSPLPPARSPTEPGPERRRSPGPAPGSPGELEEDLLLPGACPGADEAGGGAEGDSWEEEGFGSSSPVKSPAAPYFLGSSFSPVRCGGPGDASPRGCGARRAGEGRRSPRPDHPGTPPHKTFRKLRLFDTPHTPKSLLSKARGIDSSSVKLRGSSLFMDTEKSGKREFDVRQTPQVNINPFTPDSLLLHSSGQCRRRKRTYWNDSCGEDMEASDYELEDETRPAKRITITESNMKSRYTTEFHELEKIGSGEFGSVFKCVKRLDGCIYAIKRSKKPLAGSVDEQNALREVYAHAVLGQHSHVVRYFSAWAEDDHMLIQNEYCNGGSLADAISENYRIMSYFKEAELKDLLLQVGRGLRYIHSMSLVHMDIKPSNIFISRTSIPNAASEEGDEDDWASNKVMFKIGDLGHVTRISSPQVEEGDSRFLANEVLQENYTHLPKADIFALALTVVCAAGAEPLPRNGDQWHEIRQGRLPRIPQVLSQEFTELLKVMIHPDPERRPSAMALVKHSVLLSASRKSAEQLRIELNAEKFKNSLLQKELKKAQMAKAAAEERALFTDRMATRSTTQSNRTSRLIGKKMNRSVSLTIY

Cn1c(=O)c(-c2c(Cl)cccc2Cl)cc2cnc(Nc3ccc(OCCNC(=O)CCCCCCNC(=O)COc4cccc5c4C(=O)N(C4CCC(=O)NC4=O)C5=O)cc3)nc21 (stereo not drawn) [SB1.G.192.1]
logFC of WEE1 ([1]; experiment wp081): −1.764
logFC of WEE1 ([1]; experiment wp131): −1.647
logFC WEE1 (P30291-1) ([1]; experiment wp071): −2.367
logFC WEE1 (P30291-1) ([1]; experiment wp081): −1.764
logFC WEE1 (P30291-1) ([1]; experiment wp131): −1.647
logFC of GAK (O14976) ([2]; Experiment wp071): −1.765
logFC of GAK (O14976) ([2]; Experiment wp081): −1.409
logFC of GAK (O14976) ([2]; Experiment wp131): −1.475
logFC GAK ([2]; experiment wp071): −1.765
logFC GAK ([2]; experiment wp081): −1.409
logFC GAK ([2]; experiment wp131): −1.475
logFC AURKA (O14965) ([3]; experiment wp071): −0.8111
logFC AURKA (O14965) ([3]; experiment wp081): −0.7299
logFC AURKA (O14965) ([3]; experiment wp131): −0.6267

CS(=O)(=O)Nc1cccc(-c2csc3cnc(Nc4ccc(N5CCN(CCOCCOCCOc6cccc7c6C(=O)N(C6CCC(=O)NC6=O)C7=O)CC5)cc4)nc23)c1 (stereo not drawn) [RSS0628]
logFC WEE1 (P30291-1) ([1]; experiment wp045): −1.578
logFC AURKA (O14965) ([3]; experiment wp045): −1.13
logFC AAK1 ([4]; AAK1 (Q2M218-1), down): −1.24
logFC AAK1 ([4]; AAK1, accession Q2M218-1, direction of change down): −1.24

CNC(=O)c1ccccc1Nc1cc(Nc2ccc(N3CCN(CCOCCOCCNC(=O)CNc4cccc5c4C(=O)N(C4CCC(=O)NC4=O)C5=O)CC3)cc2OC)ncc1C(F)(F)F (stereo not drawn) [MFH.5.103.1]
logFC WEE1 (P30291-1) ([1]; experiment wp076): −0.9694
logFC AURKA (O14965) ([3]; experiment wp076): −0.9893
logFC AURKA (O14965) ([3]; experiment wp078): −0.9893

CCc1cnn2c(N(Cc3ccc(N)nc3)C(=O)CCOCCOCCOCCNC(=O)CNc3cccc4c3C(=O)N(C3CCC(=O)NC3=O)C4=O)cc(N3CCCC[C@H]3CCO)nc12 (stereo partly drawn) [MFH.5.115.2]
logFC of WEE1 [1, 5]: −0.7664
logFC WEE1 (P30291-1) ([1]; experiment wp076): −0.7664
logFC AURKA (O14965) ([3]; experiment wp076): −0.5912

O=C1CCC(N2C(=O)c3cccc(NCCCCCCCCN4CCC(NC(=O)c5[nH]ncc5NC(=O)c5c(Cl)cccc5Cl)CC4)c3C2=O)C(=O)N1 (stereo not drawn) [MFH.5.126.1]
logFC of WEE1 [1, 5]: −0.9048
logFC WEE1 (P30291-1) ([1]; experiment wp076): −0.9048
logFC AURKA (O14965) ([3]; experiment wp076): −0.9474

— patent publication US20240269139A1, “COMPOUNDS FOR TARGETED PROTEIN DEGRADATION OF KINASES” (DANA-FARBER CANCER INSTITUTE, INC., priority 2020, published 2024)
